Test results: patent US8633186B2, “Modulation of chemosensory receptors and ligands associated therewith” (Senomyx Inc., priority 2007, dated 2014)
One block for each molecule: values may come before it.

Tests used:
[1] = system: human panelists (perceived sweetness intensity); assay: Sweet flavor and sweet flavor enhancement, human panelists, scaling test; format: in vivo; design: key: 0-15 line scale; 0 = no sweetness, 15 = 15% sucrose sweetness
Text: Test samples containing experimental compounds were compared to a dose-response curve for perceived sweetness intensity of sweeteners (such as, for example, sucralose, sucrose, fructose and other sweeteners) concentrations to determine equivalent sweetness intensity.
A group of eight or more panelists tasted solutions including sweeteners at various concentrations, as well as the experimental compound both with and without added sweetener. Panelists then rated sweetness intensity of all samples on a structured horizontal line scale, anchored from 0 to 15, where 0 equals no sweetness and 15 equals equivalent sweetness to a 15% sucrose sample. Scores for sweetness intensity were averaged across panelists. Then using the average scores and/or equation of the line for the sweetener dose-response curve, equivalent sweetness concentrations were determined for the samples containing experimental compounds.
Subjects had been previously familiarized with the key attribute taste and were trained to use the 0 to 15 point line scale. Subjects refrained from eating or drinking (except water) for at least 1 hour prior to the test. Subjects ate a cracker and rinsed with water several times to clean the mouth.
Sweetener solutions are provided at a wide range of concentrations such as 100 ppm, 200 ppm, 300 ppm, 400 ppm, and 500 ppm for sucralose, or between 0% and 12% for sucrose or fructose, in order to create a dose-response curve. Samples containing experimental compound were prepared both alone and in a 100 ppm sucralose solution or a 6% sucrose or fructose solution. All samples were made up in low sodium buffer pH 7.1. In order to aid dispersion, solutions can be made up in 0.1% ethanol.
The solutions were dispensed in 20 ml volumes into 1 oz. sample cups and served to the subjects at room temperature. All samples were presented in randomized counterbalanced order to reduce response bias. Further, two sessions of testing may be used to check panel precision.
Subjects tasted each sample individually and rate sweetness intensity on the line scale prior to tasting the next sample. All samples were expectorated. Subjects may retaste the samples but can only use the volume of sample given. Subjects must rinse with water between samples. Eating an unsalted cracker between samples may be required depending on the samples tasted.
The scores for each sample were averaged across subjects and standard error was calculated. The dose-response curve was plotted graphically, and this may be used to ensure the panel is rating accurately; i.e., increasing the concentration of sucralose should correspond to increased average scores for sweetness. A 2-way ANOVA (factors being samples and panelists) and multiple comparison tests (such as Tukey's Honestly Significant Difference test) can be used to determine differences among samples and/or panelists. A 3-way ANOVA, with sessions as the third factor, can be used to determine if there is any difference in the ratings between sessions.

Compound: Nc1cc(=O)[nH]c2ccccc12 [Example 65, 4-Aminoquinolin-2(1H)-one]
melting point: > 250 °C

Compound: Nc1c(C(=O)O)c(=O)[nH]c2ccccc12 [Example 66, 4-Amino-2-oxo-1,2-dihydroquinoline-3-carboxylic acid]
melting point: > 250 °C

Compound: N#Cc1c(N)c2ccccc2[nH]c1=O [Example 71, 4-Amino-2-oxo-1,2-dihydroquinoline-3-carbonitrile]
melting point: > 250 °C

Compound: N#Cc1c(Cl)c2ccccc2[nH]c1=O [Example 72, 4-chloro-2-oxo-1,2-dihydroquinoline-3-carbonitrile]
melting point: > 250 °C

Compound: O=C(NC1CCCCC1)c1c(O)c2ccccc2[nH]c1=O [Example 73, N-cyclohexyl-4-hydroxy-2-oxo-1,2-dihydroquinoline-3-carboxamide]
melting point: 221 °C

Compound: CCCOc1cccc2c1C(N)=NS(=O)(=O)N2 [Example 111, 4-Amino-5-(propyloxy)-1H-benzo[c][1,2,6]thiadiazine-2,2-dioxide]
melting point: 229 to 230 °C

Compound: OC[C@H]1O[C@@](CO)(O[C@H]2O[C@H](CO)[C@@H](O)[C@H](O)[C@H]2O)[C@@H](O)[C@@H]1O [Sucrose, sucrose]
Average sweetness score (line scale 0 to 15) ([1]; Table 5, 2% sucrose alone): 2.4
Average sweetness score (line scale 0 to 15) ([1]; Table 7, 2% sucrose alone): 1.8
Average sweetness score (line scale 0 to 15) ([1]; Table 8, 6% sucrose alone): 6.6
Average sweetness score (line scale 0 to 15) ([1]; Table 8, 8% sucrose alone): 8.1
Average sweetness score (line scale 0 to 15) ([1]; Table 8, 9% sucrose alone): 8.6
Average sweetness score (line scale 0 to 15) ([1]; Table 8, 10% sucrose alone): 9.6
Average sweetness score (line scale 0 to 15) ([1]; Table 9, 2% sucrose alone): 2.2
Average sweetness score (line scale 0 to 15) ([1]; Table 9, 4% sucrose alone): 4.0
Average sweetness score (line scale 0 to 15) ([1]; Table 9, 6% sucrose alone): 5.5
Average sweetness score (line scale 0 to 15) ([1]; Table 10, 6% sucrose alone): 7.3
Average sweetness score (line scale 0 to 15) ([1]; Table 10, 8% sucrose alone): 7.9
Average sweetness score (line scale 0 to 15) ([1]; Table 10, 9% sucrose alone): 8.6
Average sweetness score (line scale 0 to 15) ([1]; Table 10, 10% sucrose alone): 9.6
Average sweetness score (line scale 0 to 15) ([1]; Table 11, 2% sucrose alone): 2.1
Average sweetness score (line scale 0 to 15) ([1]; Table 11, 4% sucrose alone): 3.9
Average sweetness score (line scale 0 to 15) ([1]; Table 11, 6% sucrose alone): 5.7
Average sweetness score (line scale 0 to 15) ([1]; Table 12, 6% sucrose alone): 6.8
Average sweetness score (line scale 0 to 15) ([1]; Table 12, 8% sucrose alone): 8.3
Average sweetness score (line scale 0 to 15) ([1]; Table 12, 9% sucrose alone): 8.6
Average sweetness score (line scale 0 to 15) ([1]; Table 12, 10% sucrose alone): 9.5
Average sweetness score (line scale 0 to 15) ([1]; Table 13, 2% sucrose alone): 1.9
Average sweetness score (line scale 0 to 15) ([1]; Table 13, 4% sucrose alone): 3.9
Average sweetness score (line scale 0 to 15) ([1]; Table 13, 6% sucrose alone): 5.5
Average sweetness score (line scale 0 to 15) ([1]; Table 14, 6% sucrose alone): 6.5
Average sweetness score (line scale 0 to 15) ([1]; Table 14, 8% sucrose alone): 8.5
Average sweetness score (line scale 0 to 15) ([1]; Table 14, 9% sucrose alone): 8.7
Average sweetness score (line scale 0 to 15) ([1]; Table 14, 10% sucrose alone): 9.7
Average sweetness score (line scale 0 to 15) ([1]; Table 15, 6% sucrose alone): 7.0
Average sweetness score (line scale 0 to 15) ([1]; Table 15, 8% sucrose alone): 8.4
Average sweetness score (line scale 0 to 15) ([1]; Table 15, 9% sucrose alone): 9.0
Average sweetness score (line scale 0 to 15) ([1]; Table 15, 10% sucrose alone): 9.1
Average sweetness score (line scale 0 to 15) ([1]; Table 16, 2% sucrose alone): 2.0
Average sweetness score (line scale 0 to 15) ([1]; Table 16, 4% sucrose alone): 4.1
Average sweetness score (line scale 0 to 15) ([1]; Table 16, 6% sucrose alone): 5.7
Average sweetness score (line scale 0 to 15) ([1]; Table 18, 2% sucrose alone): 2.4
Average sweetness score (line scale 0 to 15) ([1]; Table 18, 4% sucrose alone): 4.2
Average sweetness score (line scale 0 to 15) ([1]; Table 18, 6% sucrose alone): 5.9
Average sweetness score (line scale 0 to 15) ([1]; Table 19, 6% sucrose alone): 7.3
Average sweetness score (line scale 0 to 15) ([1]; Table 19, 8% sucrose alone): 8.6
Average sweetness score (line scale 0 to 15) ([1]; Table 19, 9% sucrose alone): 9.1
Average sweetness score (line scale 0 to 15) ([1]; Table 19, 10% sucrose alone): 9.7
Average sweetness score (line scale 0 to 15) ([1]; Table 20, 2% sucrose alone): 8.6
Average sweetness score (line scale 0 to 15) ([1]; Table 20, 4% sucrose alone): 9.1
Average sweetness score (line scale 0 to 15) ([1]; Table 20, 6% sucrose alone): 9.7
Average sweetness score (line scale 0 to 15) ([1]; Table 21, 6% sucrose alone): 6.5
Average sweetness score (line scale 0 to 15) ([1]; Table 21, 8% sucrose alone): 8.3
Average sweetness score (line scale 0 to 15) ([1]; Table 21, 9% sucrose alone): 9.4
Average sweetness score (line scale 0 to 15) ([1]; Table 21, 10% sucrose alone): 9.4
Average sweetness score (line scale 0 to 15) ([1]; Table 22, 6% sucrose alone): 6.5
Average sweetness score (line scale 0 to 15) ([1]; Table 22, 8% sucrose alone): 8.2
Average sweetness score (line scale 0 to 15) ([1]; Table 22, 9% sucrose alone): 9.2
Average sweetness score (line scale 0 to 15) ([1]; Table 22, 10% sucrose alone): 9.4
Average sweetness score (line scale 0 to 15) ([1]; Table 23, 6% sucrose alone): 6.8
Average sweetness score (line scale 0 to 15) ([1]; Table 23, 8% sucrose alone): 8.7
Average sweetness score (line scale 0 to 15) ([1]; Table 23, 9% sucrose alone): 9.5
Average sweetness score (line scale 0 to 15) ([1]; Table 23, 10% sucrose alone): 9.5
Average sweetness score (line scale 0 to 15) ([1]; Table 24, 6% sucrose alone): 6.5
Average sweetness score (line scale 0 to 15) ([1]; Table 24, 8% sucrose alone): 8.4
Average sweetness score (line scale 0 to 15) ([1]; Table 24, 9% sucrose alone): 9.2
Average sweetness score (line scale 0 to 15) ([1]; Table 24, 10% sucrose alone): 9.4
Average sweetness score (line scale 0 to 15) ([1]; Table 25, 6% sucrose alone): 6.7
Average sweetness score (line scale 0 to 15) ([1]; Table 25, 8% sucrose alone): 8.1
Average sweetness score (line scale 0 to 15) ([1]; Table 25, 9% sucrose alone): 9.3
Average sweetness score (line scale 0 to 15) ([1]; Table 25, 10% sucrose alone): 9.2
Average Sweetness ([1]; Table 26, 6% Sucrose alone, n = 24): 6.2
Average Sweetness ([1]; Table 26, 8% Sucrose alone, n = 24): 8.3
Average Sweetness ([1]; Table 26, 9% Sucrose alone, n = 24): 9.3
Average Sweetness ([1]; Table 26, 10% Sucrose alone, n = 24): 9.8
Average Sweetness ([1]; Table 26, 12% Sucrose alone, n = 24): 11.1
Average Sweetness ([1]; Table 27, 6% Sucrose alone, n = 30): 6.7
Average Sweetness ([1]; Table 27, 8% Sucrose alone, n = 30): 8.3
Average Sweetness ([1]; Table 27, 10% Sucrose alone, n = 30): 10.3
Average Sweetness ([1]; Table 27, 12% Sucrose alone, n = 30): 11.2
Average Sweetness ([1]; Table 30, 2% Sucrose alone, n = 30): 2.3
Average Sweetness ([1]; Table 30, 4% Sucrose alone, n = 30): 4.2
Average Sweetness ([1]; Table 30, 6% Sucrose alone, n = 30): 5.8
Average Sweetness ([1]; Table 31, 6% Sucrose alone, n = 28): 6.8
Average Sweetness ([1]; Table 31, 8% Sucrose alone, n = 28): 8.5
Average Sweetness ([1]; Table 31, 9% Sucrose alone, n = 28): 8.6
Average Sweetness ([1]; Table 31, 10% Sucrose alone, n = 28): 9.6
Average Sweetness ([1]; Table 32, 2% Sucrose alone, n = 28): 2.3
Average Sweetness ([1]; Table 32, 4% Sucrose alone, n = 28): 4.5
Average Sweetness ([1]; Table 32, 6% Sucrose alone, n = 28): 5.8

The next lines start with the values.

melting point: > 260 °C
Compound: Cc1sc2[nH]c(=O)nc(N)c2c1C.Cl

melting point: > 260 °C
Compound: Cc1sc2[nH]c(=S)nc(N)c2c1C [Example 1, 4-Amino-5,6-dimethylthieno[2,3-d]pyrimidine-2(1H)-thione]

melting point: > 250 °C
Compound: Cc1cccc2[nH]c(=S)nc(N)c12 [Example 3, 4-Amino-5-methylquinazoline-2(1H)-thione]

melting point: 236 °C
Compound: COC(=O)c1c(N)c2ccccc2[nH]c1=O [Example 68, Methyl 4-amino-2-oxo-1,2-dihydroquinoline-3-carboxylate]

melting point: > 260 °C
Compound: CC(C)=Cc1cccc2c1C(N)=NS(=O)(=O)N2 [Example 129, 4-Amino-5-(2-methylprop-1-enyl)-1H-benzo[c][1,2,3]thiadiazine-2,2-dioxide]
